Results taken from the supplement of paper PMC10790783.

Test system: MRC5-hT fibroblasts expressing HCMV UL38 (glucose-free medium)
Experiment: rescue of cell number (AUC of dose-response) relative to untreated glucose-free control; higher = stronger protection from glucose-starvation-induced cell death
Settings: glucose: 0 (glucose-free DMEM); 96 h; dose range 0.001-20, 10-point curve µM
Protocol: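 MRC5-hT fibroblasts stably expressing HCMV UL38 were seeded in 384-well plates, serum-starved for 24 h, switched to glucose-free DMEM, and pin-transferred with a metabolism-focused compound library as 10-point dose curves (1 nM to 20 µM; n=2). Nuclei were counted by Hoechst imaging 96 h after glucose withdrawal.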

Row | SMILES | rescue of cell number
1 | CNCCC(Oc1ccc(C(F)(F)F)cc1)c1ccccc1 (centres undefined) [Fluoxetine] | 47%
2 | CCOC(=O)N1c2ccc(C(F)(F)F)cc2[C@@H](N(Cc2cc(C(F)(F)F)cc(C(F)(F)F)c2)C(=O)OC)C[C@H]1CC [Torcetrapib] | -13.1%
3 | O=C(Nc1ccccc1)Nc1ccc(-c2ccc(C(=O)[C@@H]3CCC[C@H]3C(=O)O)cc2)cc1 | -36.5%
4 | O=C(Cc1cccc(OC(F)(F)F)c1)Nc1ccc(CCCCc2nnc(NC(=O)Cc3ccccn3)s2)nn1 [CB-839] | 38.5%
5 | C=CCN(C)CCCCCCOc1ccc(C(=O)c2ccc(Br)cc2)c(F)c1 [Ro_48_8071] | -2.22%
6 | COc1cccc2c(NCc3ccccc3)nc(-n3c(N)nc4ccccc43)nc12 [ML_240] | 50.1%
7 | CCc1c(-c2ccccc2)c(-c2ccccc2)nn1-c1ccccc1-c1cccc(OCC(=O)O)c1 | -14.6%
8 | Cc1nccn1-c1ccc(Sc2cccc(C3(C(N)=O)CCOCC3)c2)cc1 | 13%
9 | CC(C)=CCC1=C(O)C(=O)c2ccccc2C1=O [Lapachol] | 57.7%
10 | Cc1ccc([C@@H]2O[C@H](CO)[C@@H](O)[C@H](O)[C@H]2O)cc1Cc1ccc(-c2ccc(F)cc2)s1 [Canagliflozin] | 108%
11 | C=CCNC1=C2C[C@@H](C)C[C@H](OC)[C@H](O)[C@@H](C)/C=C(\C)[C@H](OC(N)=O)[C@@H](OC)/C=C\C=C(/C)C(=O)NC(=CC1=O)C2=O [17_AAG] | 54.1%
12 | O=C(O)C(=O)CBr [Bromopyruvic_acid] | 134%
13 | O=C(C1CC1)N1CC[C@@H](Cc2n[nH]c(=O)n2-c2ccc(-c3ccc4occc4c3)cc2)C1 | 117%
14 | CNc1ccc(C(=O)Oc2cc(O/N=[N+](\[O-])N(C)C)c([N+](=O)[O-])cc2[N+](=O)[O-])cc1 [PABA_NO] | -16.1%
15 | O[C@H]1[C@H]2[C@H](O)CCCN2C[C@H]1O [Swainsonine] | -31.9%
16 | O=c1[nH]cc(F)c(=O)[nH]1 [5_Fluorouracil] | -15.2%
17 | CC1=CC(=O)c2c(O)cccc2C1=O [Plumbagin] | 34.3%
18 | O=C(N[C@H](CO)[C@H](O)c1ccc([N+](=O)[O-])cc1)C(Cl)Cl [Chloramphenicol] | -10.7%
19 | Oc1ccc(/C=C/c2cc(O)cc(O)c2)cc1 [Resveratrol] | -35.9%
20 | NC(=O)NO [Hydroxyurea] | 61.6%
21 | CC(C)C[C@@H](C(=O)N[C@H](C(=O)OC1CCCC1)c1ccccc1)[C@H](O)C(=O)NO [CHR_2797] | -14.9%
22 | Nc1cccc(S(=O)(=O)N2CCCN(S(=O)(=O)c3ccc4c(c3)OCCO4)CC2)c1 [DASA-58] | 68%
23 | CCCCC[C@H](CC(=O)NO)C(=O)N[C@H](C(=O)N1CCC[C@H]1CO)C(C)C [Actinonin] | -1.46%
24 | CCOC(=O)[C@@H](N)CCC(=O)N[C@@H](CSCc1ccccc1)C(=O)N[C@@H](C(=O)OCC)c1ccccc1 [Telintra] | 16.7%
25 | Nc1nc(=S)c2[nH]cnc2[nH]1 [6_Thioguanine] | 42.9%
26 | C=C1C(=O)O[C@H]2[C@H]1CC/C(C)=C/CC[C@@]1(C)O[C@@H]21 [Parthenolide] | 34.9%
27 | COC(=O)c1ccc([C@H]2c3[nH]c4ccccc4c3C[C@H](C(=O)OC)N2C(=O)CCl)cc1 [1S,3R-RSL3] | 35.2%

Row | SMILES | rescue of cell number
28 | COc1cc(O)c(CC=C(C)C)c(O)c1C(=O)/C=C/c1ccc(O)cc1 [Xanthohumol] | 15.1%
29 | CC[n+]1c(-c2ccccc2)c2cc(N)ccc2c2ccc(N)cc21 [Ethidium_Bromide] | 97.6%
30 | Cc1nc2ccc(C(=O)N3CCC4(CC3)CC(=O)c3c(cnn3C(C)C)C4)cc2[nH]1 | 31.8%
31 | CC(=O)Oc1ccccc1C(=O)O [Aspirin] | 25.2%
32 | OCCN1C[C@H](O)[C@@H](O)[C@H](O)[C@H]1CO [Miglitol] | -37.1%
33 | CCC(C)N(C)C(=O)c1cc2ccccc2c(-c2ccccc2Cl)n1 (centres undefined) | 15.2%
34 | C[C@H]1O[C@@H](O[C@H]2[C@@H](O)C[C@H](O[C@H]3[C@@H](O)C[C@H](O[C@H]4CC[C@@]5(C)[C@H](CC[C@@H]6[C@@H]5CC[C@]5(C)[C@@H](C7=CC(=O)OC7)CC[C@]65O)C4)O[C@@H]3C)O[C@@H]2C)C[C@H](O)[C@@H]1O [Digitoxin] | 23.7%
35 | CC(=O)c1ccc2c(c1)Nc1ccccc1S2 [ML_171] | 23%
36 | CC1(C)CCC(c2ccc(Cl)cc2)=C(CN2CCN(c3ccc(C(=O)NS(=O)(=O)c4ccc(N[C@H](CCN5CCOCC5)CSc5ccccc5)c(S(=O)(=O)C(F)(F)F)c4)cc3)CC2)C1 [ABT_263] | 33.6%
37 | CC1(C)C(N(O)C(=O)Nc2ccc(Cl)cc2)N(c2ccc(Cl)cc2)C(=O)N1CC(=O)NN=CC=Cc1ccc([N+](=O)[O-])o1 (centres undefined) [Eeyarestatin_I] | 11.4%
38 | NC(=O)c1ncn([C@@H]2O[C@H](CO)[C@@H](O)[C@H]2O)c1O [Mizoribine] | -26.6%
39 | OC[C@H]1NC[C@H](O)[C@@H](O)[C@@H]1O [1_Deoxynojirimycin] | 5.66%
40 | Cc1cn[nH]c1 [Fomepizole] | 81.1%
41 | CCOc1ccc(Cc2cc([C@@H]3O[C@H](CO)[C@@H](O)[C@H](O)[C@H]3O)ccc2Cl)cc1 [Dapagliflozin] | -33.4%
42 | Oc1cccnc1NC(c1ccc(Cl)cc1)c1ccc2cccnc2c1O (centres undefined) [Adaptaquin] | 33.2%
43 | O=C1CSC(c2ccccc2Cl)c2cc(Cl)ccc2N1 (centres undefined) | 3.61%
44 | O=C(O)c1nn(Cc2ccc(Cl)cc2Cl)c2ccccc12 [Lonidamine] | -29%
45 | Cc1cc(C)nc(NC(=S)N2CCN(Cc3ccc(C(F)(F)F)cc3)CC2)c1 [NCT-503] | -9.82%
46 | Cc1onc(C(=O)N2CCN(C(c3ccc(Cl)cc3)c3ccc(Cl)cc3)CC2)c1[N+](=O)[O-] [ML-210] | -2.73%
47 | CC(C)(C(=O)c1cccnc1)c1cccnc1 [Metyrapone] | 87.6%
48 | CC1=C(CC(=O)O)c2cc(F)ccc2/C1=C\c1ccc([S+](C)[O-])cc1 (centres undefined) [Sulindac] | -22.1%
49 | Nc1nc(F)nc2c1ncn2[C@@H]1O[C@H](CO)[C@@H](O)[C@@H]1O [Fludarabine] | 103%
50 | COc1cc2c(cc1O)CC[C@@H]1[C@@H]2CC[C@]2(C)[C@@H](O)CC[C@@H]12 [2_Methoxyestradiol] | 22.8%
51 | O=[N+]([O-])c1ccc(O)c([N+](=O)[O-])c1 [2_4_Dinitrophenol] | 16.9%
52 | CC(C)(C#N)c1cc(Cn2cncn2)cc(C(C)(C)C#N)c1 [Anastrozole] | 29.4%
53 | O=C(O)[C@@]1(CCCCCCOc2ccc(Cl)cc2)CO1 [(R)_(+)_Etomoxir_sodium_salt] | 17.7%
54 | O=c1cnn([C@@H]2O[C@H](CO)[C@@H](O)[C@H]2O)c(=O)[nH]1 [6_Azauridine] | -34.1%

Row | SMILES | rescue of cell number
55 | NC(=O)c1ncn([C@@H]2O[C@H](CO)[C@@H](O)[C@H]2O)c1N [AICAR] | -30.3%
56 | N[C@H](C(=O)O)[C@@H]1CC(Cl)=NO1 [Acivicin] | -32.4%
57 | CC[C@@H]1/C=C/C=C/C[C@H](C)[C@H](O)[C@](C)(O)C(=O)[C@H](C)[C@@H](O)[C@H](C)C(=O)[C@H](C)[C@@H](O)[C@H](C)/C=C/C(=O)O[C@H]2[C@@H](C)[C@@H](CC1)O[C@@]1(CC[C@@H](C)[C@@H](C[C@H](C)O)O1)[C@@H]2C [Oligomycin_A] | 40.6%
58 | C=C(C)[C@@H]1CC[C@]2(C(=O)O)CC[C@]3(C)[C@H](CC[C@@H]4[C@@]5(C)CC[C@H](O)C(C)(C)[C@@H]5CC[C@]43C)[C@@H]12 [Betulinic_acid] | 17.8%
59 | N#Cc1ccnc(N2C(=O)CC[C@H]2C(=O)N(c2cncc(F)c2)[C@H](C(=O)NC2CC(F)(F)C2)c2ccccc2Cl)c1 [AG-120] | -8.45%
60 | CN(NC(=O)CC(=O)NN(C)C(=S)c1ccccc1)C(=S)c1ccccc1 [Elesclomol] | 111%
61 | CCCCN1C[C@H](O)[C@@H](O)[C@H](O)[C@H]1CO [Miglustat] | 5.72%
62 | CC(C)(O)CNc1nc(Nc2ccnc(C(F)(F)F)c2)nc(-c2cccc(C(F)(F)F)n2)n1 [AG-221] | 26.9%
63 | O=c1cc(-c2ccc(O)cc2)oc2cc(O)cc(O)c12 [Apigenin] | 58%
64 | S=C=NCCc1ccccc1 [PEITC] | 37.8%
65 | Oc1ccc(Nc2nc(-c3ccc(Cl)cc3)cs2)cc1 [SKI_II] | 0.0721%
66 | Cc1ccc(-c2c(-c3nn(C)c4ncnc(N5CC[C@H](N6CCCCC6)C5)c34)cnn2C)cc1 | 45.6%
67 | O=S(=O)(O)CCSSCCS(=O)(=O)O [Dimesna] | -37.8%
68 | CC1=C(/C=C/C(C)=C/C=C/C(C)=C/C(=O)O)C(C)(C)CCC1 [Tretinoin] | 10%
69 | O=C(O)CN1C(=O)c2cccc3cccc(c23)C1=O [Alrestatin] | 4.91%
70 | Nc1ccn([C@@H]2O[C@H](CO)[C@@H](O)C2(F)F)c(=O)n1 [Gemcitabine] | -5.76%
71 | Nc1nc2c(c(=O)[nH]1)C[C@@H](CCc1ccc(C(=O)N[C@@H](CCC(=O)O)C(=O)O)cc1)CN2 [Lometrexol] | -30.2%
72 | [N-]=[N+]=[N-] [Sodium_Azide] | -38.1%
73 | CC1=CC(=O)c2ccccc2C1=O [Menadione] | 23.5%
74 | COc1cccc2c(NCc3ccccc3)nc(-n3c(N)nc4ccccc43)nc12 [ML240] | 57.1%
75 | OC[C@H]1O[C@@H](c2ccc(Cl)c(Cc3ccc(O[C@H]4CCOC4)cc3)c2)[C@H](O)[C@@H](O)[C@@H]1O [Empagliflozin] | 86.7%
76 | CN(C)C(=N)NC(=N)N [Metformin] | -36.3%
77 | Oc1cc(Cl)ccc1Oc1ccc(Cl)cc1Cl [Triclosan] | 5.01%
78 | Clc1ccc(C(c2ccccc2Cl)C(Cl)Cl)cc1 (centres undefined) [Mitotane] | 9.97%
79 | Cc1c(-c2ccc(-c3ccccc3F)cc2)nc2ccc(F)cc2c1C(=O)O [Brequinar] | 126%
